#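 Five compound concentrations were applied to cells in 96-well plates for 48 hours; endpoints were derived by simple linear interpolation of the resulting dose-response curve. TGI: total growth inhibition.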
# Experiments:
# Assay in all cases: DTP human tumour cell line panel, 48 h
# MCF7 breast = system: MCF7 breast
# HCC-2998 colon = system: HCC-2998 colon
# NCI-H460 lung = system: NCI-H460 lung
# ACHN renal = system: ACHN renal
# SK-MEL-5 melanoma = system: SK-MEL-5 melanoma
# M14 melanoma = system: M14 melanoma
# RXF 393 renal = system: RXF 393 renal
# MDA-MB-231 breast = system: MDA-MB-231 breast
# DU-145 prostate = system: DU-145 prostate
# A549 NSCLC = system: A549 NSCLC
# OVCAR-5 ovarian = system: OVCAR-5 ovarian
Compound,TGI (MCF7 breast) [µM],TGI (HCC-2998 colon) [µM],TGI (NCI-H460 lung) [µM],TGI (ACHN renal) [µM],TGI (SK-MEL-5 melanoma) [µM],TGI (M14 melanoma) [µM],TGI (RXF 393 renal) [µM],TGI (MDA-MB-231 breast) [µM],TGI (DU-145 prostate) [µM],TGI (A549 NSCLC) [µM],TGI (OVCAR-5 ovarian) [µM]
Nc1ncnc2c1ncn2[C@@H]1O[C@H](COC(c2ccccc2)(c2ccccc2)c2ccccc2)[C@@H](OC(=S)Oc2ccccc2)[C@@H]1F,14.9,28.5,46.3,22.6,16.8,21,12.3,23.7,30.2,43.7,37
COc1cc(Oc2nc3ccc(C(F)(F)F)cc3nc2-c2ccccc2)cc(OC)c1OC,> 100,> 100,> 100,40.6,44.9,–,45.7,> 100,> 100,49.7,> 100
COc1ccc2c3c1O[C@H](c1ccc(O)cc1)[C@H]3[N+](C)(C)CC2,> 100,> 100,> 100,> 100,> 100,> 100,> 100,> 100,> 100,> 100,> 100
CN(C)CCc1c2c(nc3ccccc13)C(=O)c1cccnc1C2=O,1.59,2.71,0.5,1.39,0.672,0.4,1.26,26.5,1.22,3.2,3.44
Cc1cnc2c(c1C)C(=O)c1ccccc1C2=O,> 100,> 100,53.8,> 100,28.9,> 100,> 100,93.9,> 100,> 100,> 100
CC(C)(C)OC(=O)NCCCCC(N)NC(=O)c1ccccc1 (centres undefined),> 100,> 100,> 100,> 100,> 100,> 100,> 100,> 100,> 100,> 100,> 100
CO/N=C1/c2sccc2[C@H](NC(=O)C(Cc2ccccc2)NC(=O)OC(C)(C)C)[C@@H]1O (some centres undefined),> 100,> 100,> 100,–,> 100,> 100,> 100,> 100,> 100,> 100,> 100
COc1cc2c3c([nH]c2c(OC)c1OC)CCN(Cc1ccccc1)C3,41.8,34.6,63.5,> 100,34.9,30,> 100,> 100,> 100,> 100,> 100
Nc1nc2c(C(=O)O)c3ccc([N+](=O)[O-])cc3c(=O)n2c2ccccc12,49.1,> 100,> 100,> 100,> 100,64.2,45.6,79.1,49.4,> 100,> 100
C=CCOc1ccc(C2C(C(=O)OC)C(=O)CC(O)(c3ccccc3)C2C(=O)OC)cc1OC (centres undefined),61.3,> 100,> 100,> 100,> 100,–,37.2,38.2,> 100,> 100,> 100
CC(=O)OCC1OC(OCCCOP(=S)(OCCC#N)OCC2OC(n3ccc(N)nc3=O)C(OC(=O)c3ccccc3)C2OC(=O)c2ccccc2)C(OC(C)=O)C(OC(C)=O)C1OC(C)=O (centres undefined),> 100,> 100,> 100,> 100,> 100,> 100,> 100,> 100,> 100,> 100,> 100
CCN(CC)C1Oc2cc3c(cc2C(c2cccc(OC)c2OC)C1C)OCO3 (centres undefined),60.8,25.8,17.7,29.5,21.3,46.7,11.8,35.4,23.9,25.8,48.6
COC(=O)C(Cc1c[nH]c2ccccc12)N=C1Nc2ccncc2S(=O)(=O)N1c1cccc(OC(C)C)c1 (centres undefined),> 100,> 100,> 100,> 100,> 100,> 100,> 100,> 100,> 100,> 100,> 100
O=[N+]([O-])c1ccc(C(O)(C#CCN2CCCC2)c2ccccc2)cc1 (centres undefined),> 100,35.8,> 100,> 100,42.6,33.6,> 100,> 100,> 100,> 100,> 100
CCCc1[nH]c2ccccc2c1-c1c(CCC)[nH]c2ccccc12,29.9,42.1,59.7,31.7,23.7,27.9,37.6,38.6,35,> 75.4,33.6
CC(=O)O[C@H]1CC[C@@]2(C)C(=CC[C@@H]3[C@@H]2CC[C@]2(C)c4nc(Cl)ccc4C[C@@H]32)C1,62.3,> 100,> 100,> 100,96.6,> 100,> 100,> 100,> 100,> 100,> 100

Compound,TGI (MCF7 breast) [µM],TGI (HCC-2998 colon) [µM],TGI (NCI-H460 lung) [µM],TGI (ACHN renal) [µM],TGI (SK-MEL-5 melanoma) [µM],TGI (M14 melanoma) [µM],TGI (RXF 393 renal) [µM],TGI (MDA-MB-231 breast) [µM],TGI (DU-145 prostate) [µM],TGI (A549 NSCLC) [µM],TGI (OVCAR-5 ovarian) [µM]
CSc1c(C#N)c(N)n(-c2ccc(Cl)cc2)c(=O)c1C#N,> 100,> 100,> 100,–,> 100,> 100,> 100,> 100,> 100,> 100,> 100
COc1cc(CNc2nc3ccccc3nc2C(=O)O)cc(OC)c1OC,> 100,> 100,> 100,> 100,> 100,–,> 100,> 100,> 100,> 100,> 100
Clc1ccc2oc(CCc3ccccc3)nc2c1,> 100,77.1,> 100,> 100,55.4,> 100,99.3,> 100,> 100,> 100,> 100
c1ccc(CC2COC(c3cccs3)=N2)cc1 (centres undefined),> 31.6,> 100,> 100,> 100,> 100,> 100,> 100,> 100,> 100,> 100,> 100
COc1cccc(C(=O)C#Cc2cnc(OC)nc2OC)c1,1.28,17.5,28.3,3.5,3.06,6.28,1.39,7.42,12.4,21.4,8.05
N#Cc1nc(C#N)n(S(=O)(=O)c2ccccc2)c1NS(=O)(=O)c1ccccc1,> 100,> 100,> 100,> 100,> 100,> 100,> 100,> 100,> 100,> 100,> 100
CCOC(=O)C1CCCCN1C(=O)Cc1c[nH]c2ccccc12 (centres undefined),> 100,> 100,> 100,> 100,–,> 100,> 100,> 100,> 100,> 100,> 100
O=c1[nH]nc(-c2ccccc2)n1O,> 100,> 100,> 100,> 100,> 100,> 100,> 100,> 100,> 100,> 100,> 100
CC(C)/C(Cl)=N/OC(=O)Nc1ccc(Cl)c(Cl)c1,26.9,28.6,34,3.72,27.3,6.52,26.7,30.2,32.5,43.4,30.2
CC1(C)CC(=O)c2c(nc3c4c([nH]c(-c5ccc(Br)cc5)c24)CC(C)(C)C3)C1,> 100,> 100,> 100,> 100,> 100,> 100,65.3,> 100,> 100,> 100,> 100
CCC1C(c2ccccc2O)c2cc3c(cc2OC1N1CCOCC1)OCO3 (centres undefined),28.2,31,29.7,26,30.5,30.6,28.9,33.5,28,29.9,28.7
CN(CCCNC(=O)c1cc(-c2ccccc2)nc2ccccc12)CCCNC(=O)c1cc(-c2ccccc2)nc2ccccc12,3.2,3.36,3.81,7.25,3.08,3.17,16,7.93,9.49,15.3,4.81
CCN(CCN(CC)C(=O)Nc1ccccc1)C(=O)Nc1ccccc1,> 100,> 100,> 100,> 100,> 100,> 100,> 100,> 100,> 100,> 100,> 100
NC(Cc1ccc(S(=O)(=O)O)cc1)C(=O)NC(Cc1ccc(S(=O)(=O)O)cc1)C(=O)NC(Cc1ccc(S(=O)(=O)O)cc1)C(=O)NC(Cc1ccc(S(=O)(=O)O)cc1)C(=O)O (centres undefined),> 100,> 100,> 100,> 100,> 100,> 100,> 100,> 100,> 100,> 100,> 100
O=C(O)c1ccccc1N=Nc1c(O)c(S(=O)(=O)O)cc2cc(S(=O)(=O)O)ccc12,> 100,> 100,> 100,> 100,> 100,> 100,> 100,> 100,> 100,> 100,> 100
CC1CC(C#N)=C2NCCN2C1=O (centres undefined),50.7,> 100,> 100,–,28.5,33.5,> 100,> 100,> 100,> 100,–

# — PubChem BioAssay (NCI)
